Source: patent US20220315593A1, “EGFR INHIBITORS FOR THE TREATMENT OF CANCER” (Hoffmann-La Roche Inc., priority 2019, published 2022)

How the values were obtained:
[1] = biological target: T1, EGFR TMLR (T790M/L858R), H1975 cell line (Homo sapiens, UniProt P00533, L858R/T790M); assay: HTRF Phospho EGFR TMLR Assay (Cellular); type: cell-based; conditions: H1975 cells, 16 hours compound incubation
T1 construct: H1975 cell line (CRL-5908; Lot BA70803) was obtained from American Type Culture Collection; host or cells: H1975
Description: HTRF Phospho EGFR TMLR Assay (Cellular)
H1975 cell line (CRL-5908; Lot BA70803) was obtained from American Type Culture Collection (Manassas, Va., USA). Cells were maintained at 37° C., 5% CO2 in complete Media RPMI 1640 without phenol red containing 0.3 mg/ml glutamine, 100 IU/ml penicillin, and […] streptomycin (Gibco, 15140-122) supplemented with 10% fetal bovine serum (FBS, Gibco, 10091-148). Compounds were diluted into starving medium RPMI 1640 Media (Gibco, 11835-030) without phenol red containing 0.3 mg/ml glutamine, 100 IU/ml penicillin, and […] streptomycin (Gibco).
Cells were cultured for 24 h in a 384-well plate (Greiner Bio-One, Nr. 784-080; 5000 cells/well) using 8 μl of complete medium/well. Then 4 μl/well of the 3× compound solution, containing a factor 3 dilution series of the compound or DMSO in starving medium, were added to the cells (final DMSO 0.33%). After 16 hours at 37° C., 5% CO2, 95% rel. humidity cells were lysed by adding to the compound mix 4 μl/well of the supplemented lysis buffer (Cis-bio, Phospho-EGFR HTRF kit, 64EG1PEH), followed by incubation for 30 min at room temperature with shaking (400 rpm). Then 4 μl of a mixture of anti-Phospho-EGFR Cryptate and of anti-Phospho-EGFR-d2 antibody solutions prepared in the detection buffer was added. The plates were then incubated for 4 h at room temperature before reading the fluorescence emission at 620 and 665 nm using an Envision reader (Perkin Elmer).

[2] = biological target: T2, EGFR TMLRCS (T790M/L858R/C797S), BaF3-TMLRCS cell line (Homo sapiens, UniProt P00533, C797S/L858R/T790M); assay: HTRF Phospho EGFR TMLRCS Assay (Cellular); type: cell-based; conditions: BaF3-TMLRCS cells, 4 hours compound incubation
T2 construct: host or cells: BaF3
Description: HTRF Phospho EGFR TMLRCS Assay (Cellular)
BaF3-TMLRCS cell line were obtained from Crownbio (San Diego, Calif., USA). Cells were maintained at 37° C., 5% CO2 in RPMI ATCC (Gibco 31870) +2mM Glutamine+0.5 μg/ml Puromycin supplemented with 10% fetal bovine serum (FBS) (Gibco).
Cells are transferred as above to Greiner Bio-One, Nr. 784-08 micro-titerplate at 20000 cells/well in 12.5 μl of growth medium/well after the plates had been pre-filled with 12.5 nl of DMSO solutions of the to be tested compounds (in dose response) or DMSO only. After spinning the plates at 300×g for 30 seconds the cells were incubated for 4 hours at 37 C, 5% CO2, 95% humidity. The cells were lysed by adding to the compound mix 4 μl/well of the supplemented lysis buffer (Cis-bio, Phospho-EGFR HTRF kit, 64EG1PEH), followed by incubation for 30 min at room temperature with shaking (400 rpm). The plates were then frozen and stored overnight at −80 C. On the next day and after thawing the plates, 4 μl of a mixture of anti-Phospho-EGFR Cryptate and of anti-Phospho-EGFR-d2 antibody solutions prepared in the supplied detection buffer was added to each well. The lidded plates were then incubated for 4 h at room temperature before reading the fluorescence emission at 616 and 665 nm using an Envision reader (Perkin Elmer). Data was analyzed in similar fashion as above using the normalized ratio of the 665 to 616 signals multiplied by 10000.

T1 sequence (P00533 25-1210 T790M/L858R): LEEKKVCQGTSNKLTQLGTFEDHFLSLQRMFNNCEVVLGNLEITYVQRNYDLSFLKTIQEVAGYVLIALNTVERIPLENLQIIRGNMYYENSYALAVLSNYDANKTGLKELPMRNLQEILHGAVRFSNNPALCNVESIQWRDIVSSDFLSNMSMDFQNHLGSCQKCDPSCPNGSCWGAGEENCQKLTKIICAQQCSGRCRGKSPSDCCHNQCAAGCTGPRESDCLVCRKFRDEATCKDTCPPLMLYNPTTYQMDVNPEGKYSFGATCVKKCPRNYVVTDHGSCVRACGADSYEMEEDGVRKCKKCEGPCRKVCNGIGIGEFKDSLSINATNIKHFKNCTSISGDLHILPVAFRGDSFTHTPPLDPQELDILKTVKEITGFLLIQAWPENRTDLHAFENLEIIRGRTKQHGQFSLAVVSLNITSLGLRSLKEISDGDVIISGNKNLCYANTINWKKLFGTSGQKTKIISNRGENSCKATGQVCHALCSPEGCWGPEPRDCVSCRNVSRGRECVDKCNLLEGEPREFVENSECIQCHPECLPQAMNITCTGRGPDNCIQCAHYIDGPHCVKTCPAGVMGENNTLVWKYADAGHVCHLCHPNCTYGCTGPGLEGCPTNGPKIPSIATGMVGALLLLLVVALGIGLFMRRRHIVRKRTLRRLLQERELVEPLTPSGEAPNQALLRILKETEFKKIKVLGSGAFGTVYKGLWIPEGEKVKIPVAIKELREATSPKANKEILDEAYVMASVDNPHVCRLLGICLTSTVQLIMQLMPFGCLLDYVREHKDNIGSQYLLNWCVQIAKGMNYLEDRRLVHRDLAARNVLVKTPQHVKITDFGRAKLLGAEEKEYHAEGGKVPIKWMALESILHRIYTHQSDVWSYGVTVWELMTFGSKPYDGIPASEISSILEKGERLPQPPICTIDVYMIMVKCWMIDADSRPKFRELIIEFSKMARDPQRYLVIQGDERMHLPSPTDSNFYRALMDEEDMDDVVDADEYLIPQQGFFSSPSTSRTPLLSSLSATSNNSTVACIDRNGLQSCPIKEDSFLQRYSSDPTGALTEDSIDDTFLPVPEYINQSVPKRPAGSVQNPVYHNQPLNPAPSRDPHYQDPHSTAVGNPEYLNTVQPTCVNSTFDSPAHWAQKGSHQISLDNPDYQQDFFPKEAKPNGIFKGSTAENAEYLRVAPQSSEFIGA
T2 sequence (P00533 25-1210 T790M/C797S/L858R): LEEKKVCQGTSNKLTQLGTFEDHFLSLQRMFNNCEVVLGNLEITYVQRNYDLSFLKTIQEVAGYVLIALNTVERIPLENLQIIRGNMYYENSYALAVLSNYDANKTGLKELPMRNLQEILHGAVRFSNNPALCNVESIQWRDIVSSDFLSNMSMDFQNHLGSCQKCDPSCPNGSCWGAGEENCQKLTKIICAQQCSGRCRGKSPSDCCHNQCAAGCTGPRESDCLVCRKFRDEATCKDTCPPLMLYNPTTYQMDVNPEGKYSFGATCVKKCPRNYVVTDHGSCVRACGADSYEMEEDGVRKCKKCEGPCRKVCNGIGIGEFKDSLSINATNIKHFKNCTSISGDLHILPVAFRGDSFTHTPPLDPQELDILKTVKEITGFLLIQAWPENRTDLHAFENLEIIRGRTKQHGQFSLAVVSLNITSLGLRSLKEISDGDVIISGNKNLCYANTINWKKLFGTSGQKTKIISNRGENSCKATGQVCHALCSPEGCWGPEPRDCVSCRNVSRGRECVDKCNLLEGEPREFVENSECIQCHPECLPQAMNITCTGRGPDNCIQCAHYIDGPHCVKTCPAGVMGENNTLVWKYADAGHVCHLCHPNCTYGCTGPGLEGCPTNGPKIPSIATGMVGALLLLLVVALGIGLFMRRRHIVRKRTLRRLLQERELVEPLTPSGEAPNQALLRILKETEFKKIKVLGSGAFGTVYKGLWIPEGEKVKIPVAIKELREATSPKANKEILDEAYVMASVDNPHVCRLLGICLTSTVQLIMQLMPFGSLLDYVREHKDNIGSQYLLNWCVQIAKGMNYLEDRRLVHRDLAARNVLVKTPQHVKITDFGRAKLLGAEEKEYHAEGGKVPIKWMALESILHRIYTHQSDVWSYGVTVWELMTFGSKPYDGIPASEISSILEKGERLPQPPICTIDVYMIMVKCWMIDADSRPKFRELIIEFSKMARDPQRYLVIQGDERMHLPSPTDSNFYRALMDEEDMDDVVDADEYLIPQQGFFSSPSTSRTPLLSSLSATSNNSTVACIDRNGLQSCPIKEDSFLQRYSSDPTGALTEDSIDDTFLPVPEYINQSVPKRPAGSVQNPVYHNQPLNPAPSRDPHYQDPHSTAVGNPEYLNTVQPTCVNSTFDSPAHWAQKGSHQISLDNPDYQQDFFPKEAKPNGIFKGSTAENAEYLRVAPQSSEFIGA

IC50 [1] [nM] | IC50 [2] [nM] | Compound
1 | 7 | COc1c(-c2ccc(N3CCOCC3)cc2)cc(Cl)c2cn(C(C(=O)Nc3nccs3)c3ncn4c3C[C@@H](F)C4)nc12 (mixture of isomers) [Example 19, 2-[4-Chloro-7-methoxy-6-(4-morpholin-4-ylphenyl)indazol-2-yl]-2-[rac-(6R)-6-fluoro-6,7-dihydro-5H-pyrrolo[1,2-c]imidazol-1-yl]-N-(1,3-thiazol-2-yl)acetamide]
1 | 5 | O=C(Nc1nccs1)C(c1ncn2c1C[C@@H](F)C2)n1cc2c(F)cc(-c3ccc(N4CCOCC4)c(F)c3)cc2n1 (stereo partly drawn) [Example 5, 2-((R)-6-Fluoro-6,7-dihydro-5H-pyrrolo[1,2-c]imidazol-1-yl)-2-(4-fluoro-6-(3-fluoro-4-morpholinophenyl)-2H-indazol-2-yl)-N-(thiazol-2-yl)acetamide]
1 |  | O=C(Nc1nccs1)C(c1ncn2c1CCC2)n1cc2c(Cl)cc(-c3ccc(N4CCOCC4)cc3)c(F)c2n1 (stereo not drawn) [Example 10, 2-(4-Chloro-7-fluoro-6-(4-morpholinophenyl)-2H-indazol-2-yl)-2-(6,7-dihydro-5H-pyrrolo[1,2-c]imidazol-1-yl)-N-(thiazol-2-yl)acetamide]
1 |  | O=C(Nc1nccs1)C(c1ncn2c1CCC2)n1cc2c(F)cc(-c3ccc(N4CCOCC4)c(F)c3)cc2n1 (stereo not drawn) [Example 11, 2-(6,7-Dihydro-5H-pyrrolo[1,2-c]imidazol-1-yl)-2-(4-fluoro-6-(3-fluoro-4-morpholinophenyl)-2H-indazol-2-yl)-N-(thiazol-2-yl)acetamide]
3 | 22 | O=C(Nc1nccs1)C(c1ncn2c1CCC2)n1cc2c(Cl)cc(-c3ccc(N4CCOCC4)cc3)c(Cl)c2n1 (stereo not drawn) [Example 14, 2-(4,7-Dichloro-6-(4-morpholinophenyl)-2H-indazol-2-yl)-2-(6,7-dihydro-5H-pyrrolo[1,2-c]imidazol-1-yl)-N-(thiazol-2-yl)acetamide]
2 |  | O=C(Nc1nccs1)C(c1ncn2c1CCC2)n1cc2c(Cl)cc(-c3ccc(N4CCOCC4)c(F)c3)c(F)c2n1 (stereo not drawn) [Example 17, 2-(4-Chloro-7-fluoro-6-(3-fluoro-4-morpholinophenyl)-2H-indazol-2-yl)-2-(6,7-dihydro-5H-pyrrolo[1,2-c]imidazol-1-yl)-N-(thiazol-2-yl)acetamide]
